In ChEMBL document CHEMBL1201862, “PubChem BioAssay data set” (2004) one finds EC50, IC50 and AC50 data, which are given here for eight compounds.

The source made the active and inactive calls.

In one experiment the target is T1, Estrogen receptor (Homo sapiens, UniProt P03372).
T1 sequence (P03372 whole entry): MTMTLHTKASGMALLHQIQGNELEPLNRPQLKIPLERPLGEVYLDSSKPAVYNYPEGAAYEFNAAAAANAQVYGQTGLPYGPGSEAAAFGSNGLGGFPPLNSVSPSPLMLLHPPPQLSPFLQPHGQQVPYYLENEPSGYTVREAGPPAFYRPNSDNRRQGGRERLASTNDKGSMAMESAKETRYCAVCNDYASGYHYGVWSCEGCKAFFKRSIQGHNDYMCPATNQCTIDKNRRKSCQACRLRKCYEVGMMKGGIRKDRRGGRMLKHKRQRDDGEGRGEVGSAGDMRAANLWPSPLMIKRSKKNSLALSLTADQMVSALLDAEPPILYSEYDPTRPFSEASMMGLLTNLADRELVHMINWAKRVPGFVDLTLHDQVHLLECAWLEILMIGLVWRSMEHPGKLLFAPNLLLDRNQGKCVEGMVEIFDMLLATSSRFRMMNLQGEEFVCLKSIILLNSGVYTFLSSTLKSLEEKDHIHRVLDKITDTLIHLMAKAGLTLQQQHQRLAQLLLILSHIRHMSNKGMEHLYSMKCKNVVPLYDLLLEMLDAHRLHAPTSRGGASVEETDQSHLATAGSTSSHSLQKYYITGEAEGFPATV
In words: potentiators of ERα–SRC-1 coactivator binding, dose response, biochemical, TR-FRET, ERα LBD (AID 737).

The next experiment deals with Large T antigen (Simian virus 40, UniProt P03070). The experiment is classed as functional, Betapolyomavirus macacae.
Large T antigen, sequence (P03070 whole entry): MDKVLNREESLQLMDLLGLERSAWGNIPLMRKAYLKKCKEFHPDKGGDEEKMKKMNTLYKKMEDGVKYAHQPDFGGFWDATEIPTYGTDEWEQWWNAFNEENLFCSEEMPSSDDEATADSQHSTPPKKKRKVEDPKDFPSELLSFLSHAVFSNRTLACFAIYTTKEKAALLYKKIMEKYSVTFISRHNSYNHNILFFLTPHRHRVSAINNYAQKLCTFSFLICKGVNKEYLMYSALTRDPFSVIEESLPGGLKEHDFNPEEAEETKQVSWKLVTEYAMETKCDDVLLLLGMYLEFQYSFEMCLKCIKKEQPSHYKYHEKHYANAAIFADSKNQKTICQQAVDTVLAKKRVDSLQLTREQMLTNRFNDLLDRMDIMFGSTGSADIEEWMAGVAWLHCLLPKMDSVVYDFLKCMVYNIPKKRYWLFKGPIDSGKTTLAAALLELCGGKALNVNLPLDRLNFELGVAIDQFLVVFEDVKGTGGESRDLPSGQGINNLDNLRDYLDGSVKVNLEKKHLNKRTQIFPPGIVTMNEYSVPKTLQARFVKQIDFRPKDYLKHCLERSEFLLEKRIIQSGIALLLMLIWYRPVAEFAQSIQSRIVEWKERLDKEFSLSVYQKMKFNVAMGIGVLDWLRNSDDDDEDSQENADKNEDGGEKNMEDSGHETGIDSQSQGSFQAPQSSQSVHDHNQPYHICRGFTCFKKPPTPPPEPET
Another experiment deals with Cytochrome P450 3A4 (Homo sapiens, UniProt P08684). Conditions: Potency.
Cytochrome P450 3A4, sequence (P08684 whole entry): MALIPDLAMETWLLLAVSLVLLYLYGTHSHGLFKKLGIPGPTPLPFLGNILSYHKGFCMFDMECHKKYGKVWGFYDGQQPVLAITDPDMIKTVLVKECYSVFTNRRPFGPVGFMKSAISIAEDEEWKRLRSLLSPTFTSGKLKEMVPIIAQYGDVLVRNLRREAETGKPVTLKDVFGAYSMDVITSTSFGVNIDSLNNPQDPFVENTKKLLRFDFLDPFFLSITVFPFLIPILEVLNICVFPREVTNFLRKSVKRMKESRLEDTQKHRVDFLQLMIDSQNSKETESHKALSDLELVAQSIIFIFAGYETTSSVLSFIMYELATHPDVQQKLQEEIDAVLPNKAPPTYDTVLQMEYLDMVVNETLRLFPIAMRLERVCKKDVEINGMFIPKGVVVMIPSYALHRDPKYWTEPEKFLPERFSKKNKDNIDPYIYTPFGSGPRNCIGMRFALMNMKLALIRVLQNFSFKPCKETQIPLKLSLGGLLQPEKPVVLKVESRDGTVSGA
The target in the next experiment is Cytochrome P450 2C19 (Homo sapiens, UniProt P33261). The experiment can be described thus: qHTS Assay for Inhibitors and Substrates of Cytochrome P450 2C19. [Related pubchem assays: 410 ]. Conditions: read-out: Potency. The experiment is classed as ADME.
Cytochrome P450 2C19, sequence (P33261 whole entry): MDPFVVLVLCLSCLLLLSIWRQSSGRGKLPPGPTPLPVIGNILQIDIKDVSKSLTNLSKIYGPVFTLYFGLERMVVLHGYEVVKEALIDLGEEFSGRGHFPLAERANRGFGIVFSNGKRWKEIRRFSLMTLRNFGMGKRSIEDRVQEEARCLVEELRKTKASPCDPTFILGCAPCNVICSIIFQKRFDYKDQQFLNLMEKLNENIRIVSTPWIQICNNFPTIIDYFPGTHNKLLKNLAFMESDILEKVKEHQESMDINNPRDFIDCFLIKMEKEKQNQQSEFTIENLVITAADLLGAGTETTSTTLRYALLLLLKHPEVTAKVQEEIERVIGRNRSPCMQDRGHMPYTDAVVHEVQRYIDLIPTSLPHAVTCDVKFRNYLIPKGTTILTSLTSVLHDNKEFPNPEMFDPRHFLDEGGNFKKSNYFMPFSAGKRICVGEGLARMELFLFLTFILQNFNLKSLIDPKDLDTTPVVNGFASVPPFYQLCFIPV
For experiment [1], the target named is T2, Polyadenylate-binding protein 1 (Homo sapiens, UniProt P11940). The experiment can be described thus: PABP1 MLLE–PAM2 binding inhibitor potency, dose response, biochemical, fluorescence polarization, FITC-PAM2 peptide (AID 602259). The experiment is classed as functional. Conditions: read-out: IC50_Mean.
T2 sequence (P11940 whole entry): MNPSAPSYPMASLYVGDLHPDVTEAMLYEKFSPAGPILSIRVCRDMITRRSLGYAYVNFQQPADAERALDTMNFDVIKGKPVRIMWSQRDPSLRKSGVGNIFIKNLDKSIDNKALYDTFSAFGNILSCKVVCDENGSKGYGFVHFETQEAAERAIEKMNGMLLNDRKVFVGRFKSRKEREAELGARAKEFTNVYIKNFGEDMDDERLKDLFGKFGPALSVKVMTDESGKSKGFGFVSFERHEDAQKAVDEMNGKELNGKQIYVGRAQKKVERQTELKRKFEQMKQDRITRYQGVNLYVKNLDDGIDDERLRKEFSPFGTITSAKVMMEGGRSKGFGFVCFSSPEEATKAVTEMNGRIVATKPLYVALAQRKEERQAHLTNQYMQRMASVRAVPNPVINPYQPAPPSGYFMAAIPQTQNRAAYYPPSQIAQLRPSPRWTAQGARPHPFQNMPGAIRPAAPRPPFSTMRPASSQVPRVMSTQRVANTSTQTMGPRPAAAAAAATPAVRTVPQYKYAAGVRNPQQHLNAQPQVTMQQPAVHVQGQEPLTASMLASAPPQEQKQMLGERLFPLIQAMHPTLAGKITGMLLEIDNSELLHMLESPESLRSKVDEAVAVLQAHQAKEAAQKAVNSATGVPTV
Experiment [2] in a line: inhibitors of intracellular T. cruzi replication, confirmation, NIH3T3 host cells, beta-gal luminescence (AID 2044).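 Also: intracellular parasites grown in NIH/3T3 mouse fibroblasts as host cells; luminescent beta-galactosidase reporter signal from transgenic T. cruzi replicating inside host cells; inhibitors lower the luminescence signal.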 The experiment is classed as functional, cell-based.
In experiment [3] the target is T2, Polyadenylate-binding protein 1. In words: PABP1 MLLE–PAM2 interaction inhibitors, dose response, miRNA deadenylation inhibitor project, biochemical, fluorescence polarization, Cy5-PAM2 peptide, secondary (AID 602260). The experiment is classed as functional. Conditions: read-out: IC50_Mean.
In experiment [4] the target is Sphingosine 1-phosphate receptor 4 (Homo sapiens, UniProt O95977). The experiment can be described thus: Fluorescence dose response cell-based high throughput screening assay for antagonists of the Sphingosine 1-Phosphate Receptor 4 (S1P4). [Related pubchem assays: 1524 (Confirmation in triplicates.), 1510 (Primary screen.)]. The experiment is classed as functional.
Sphingosine 1-phosphate receptor 4, sequence (O95977 whole entry): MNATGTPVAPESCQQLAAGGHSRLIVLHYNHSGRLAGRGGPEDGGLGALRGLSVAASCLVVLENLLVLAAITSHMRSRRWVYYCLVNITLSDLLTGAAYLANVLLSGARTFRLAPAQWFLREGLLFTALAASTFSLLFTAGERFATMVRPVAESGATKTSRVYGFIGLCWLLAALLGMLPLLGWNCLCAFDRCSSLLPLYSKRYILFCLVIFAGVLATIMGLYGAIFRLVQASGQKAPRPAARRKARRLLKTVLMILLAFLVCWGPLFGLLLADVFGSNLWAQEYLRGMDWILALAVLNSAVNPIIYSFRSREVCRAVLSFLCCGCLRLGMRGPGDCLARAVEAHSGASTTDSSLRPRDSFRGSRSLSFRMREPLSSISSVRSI

A short description of experiment [5]: cytotoxicity toward NIH3T3 fibroblasts, dose response, counter-screen, cell-based, ATP luminescence, mouse fibroblasts (AID 2010).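 Also: cells exposed to compound for about 90 hours before reading.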 Format: functional.
Experiment [6] addresses Sphingosine 1-phosphate receptor 1 (Homo sapiens, UniProt P21453). The experiment is classed as functional.
Another experiment concerns the target Estrogen receptor beta (Homo sapiens, UniProt Q92731). In words: ERβ–SRC-3 coactivator interaction inhibitors, confirmation, orthogonal assay, biochemical, ELISA, streptavidin-HRP readout (AID 1060).
The next experiment deals with T3, Insulin-degrading enzyme (Homo sapiens, UniProt P14735).
T3 sequence (P14735 whole entry): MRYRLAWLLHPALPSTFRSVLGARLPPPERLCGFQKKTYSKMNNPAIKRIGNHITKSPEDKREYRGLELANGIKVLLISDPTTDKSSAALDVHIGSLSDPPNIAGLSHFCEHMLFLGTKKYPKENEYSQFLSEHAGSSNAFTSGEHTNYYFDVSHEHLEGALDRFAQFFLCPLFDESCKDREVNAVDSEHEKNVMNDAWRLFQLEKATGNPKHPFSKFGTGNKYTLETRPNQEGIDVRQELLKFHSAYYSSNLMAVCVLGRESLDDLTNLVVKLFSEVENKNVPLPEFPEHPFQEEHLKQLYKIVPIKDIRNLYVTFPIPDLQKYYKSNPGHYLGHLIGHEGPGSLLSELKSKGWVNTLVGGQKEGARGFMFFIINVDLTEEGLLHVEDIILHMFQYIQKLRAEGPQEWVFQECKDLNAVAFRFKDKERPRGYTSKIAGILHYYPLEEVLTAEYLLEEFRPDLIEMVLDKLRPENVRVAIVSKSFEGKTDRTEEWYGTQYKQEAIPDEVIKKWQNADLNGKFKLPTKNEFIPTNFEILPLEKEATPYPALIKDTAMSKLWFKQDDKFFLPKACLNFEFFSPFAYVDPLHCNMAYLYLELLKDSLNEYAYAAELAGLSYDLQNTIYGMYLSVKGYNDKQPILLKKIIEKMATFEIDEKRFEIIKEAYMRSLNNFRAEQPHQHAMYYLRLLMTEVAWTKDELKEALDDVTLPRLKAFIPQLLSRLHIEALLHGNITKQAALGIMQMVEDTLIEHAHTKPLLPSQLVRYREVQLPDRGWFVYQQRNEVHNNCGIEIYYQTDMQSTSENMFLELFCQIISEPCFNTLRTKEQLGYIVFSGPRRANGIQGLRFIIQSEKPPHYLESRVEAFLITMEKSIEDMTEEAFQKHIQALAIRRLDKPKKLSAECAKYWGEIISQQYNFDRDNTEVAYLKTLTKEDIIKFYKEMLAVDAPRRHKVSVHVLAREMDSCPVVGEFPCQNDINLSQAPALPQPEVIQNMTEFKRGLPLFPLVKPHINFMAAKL
The experiment can be described thus: Dose Response: Fluorescence polarization-based cell-based high throughput dose response assay for inhibitors of insulin-degrading enzyme (IDE). [Related pubchem assays: 434962 (Primary screen (IDE inhibitors in singlicate)), 449730 (Counterscreen (Cytotoxicity in triplicate)), 435028 (Confirmation (IDE inhibitors in triplicate)), 434984 (Summary …. Format: functional.

A short description of experiment [7]: Counterscreen for IDE inhibitors: Luminescence-based cell-based high throughput dose response assay to identify compounds that are cytotoxic to HEK cells. [Related pubchem assays: 434962 (Primary screen (IDE inhibitors in singlicate)), 449730 (Counterscreen (Cytotoxicity in triplicate)), 435028 (Confirmation (IDE inhibitors in triplicate)) …. The experiment is classed as functional. As to conditions: HEK293.

In experiment [8] the target is Mothers against decapentaplegic homolog 3 (Homo sapiens, UniProt P84022). In words: SMAD3 transcription factor inhibitors, dose response (AID 715). Format: functional.
Mothers against decapentaplegic homolog 3, sequence (P84022 whole entry): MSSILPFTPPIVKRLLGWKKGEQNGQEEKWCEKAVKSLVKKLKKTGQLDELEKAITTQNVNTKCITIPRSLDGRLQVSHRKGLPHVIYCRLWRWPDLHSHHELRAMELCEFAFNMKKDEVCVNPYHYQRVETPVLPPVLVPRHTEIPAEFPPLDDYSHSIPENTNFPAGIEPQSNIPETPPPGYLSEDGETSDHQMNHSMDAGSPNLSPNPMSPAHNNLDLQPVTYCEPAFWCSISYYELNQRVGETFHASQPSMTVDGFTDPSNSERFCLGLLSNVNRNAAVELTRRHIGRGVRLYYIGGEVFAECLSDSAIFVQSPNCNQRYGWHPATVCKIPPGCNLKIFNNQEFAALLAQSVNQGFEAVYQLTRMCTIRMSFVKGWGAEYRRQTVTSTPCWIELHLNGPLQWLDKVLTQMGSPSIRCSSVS
The target of experiment [9] is Luciferin 4-monooxygenase (Photinus pyralis, UniProt P08659). In words: firefly luciferase enzyme inhibitors, dose response, biochemical, luminescence (AID 1891).
Luciferin 4-monooxygenase, sequence (P08659 whole entry): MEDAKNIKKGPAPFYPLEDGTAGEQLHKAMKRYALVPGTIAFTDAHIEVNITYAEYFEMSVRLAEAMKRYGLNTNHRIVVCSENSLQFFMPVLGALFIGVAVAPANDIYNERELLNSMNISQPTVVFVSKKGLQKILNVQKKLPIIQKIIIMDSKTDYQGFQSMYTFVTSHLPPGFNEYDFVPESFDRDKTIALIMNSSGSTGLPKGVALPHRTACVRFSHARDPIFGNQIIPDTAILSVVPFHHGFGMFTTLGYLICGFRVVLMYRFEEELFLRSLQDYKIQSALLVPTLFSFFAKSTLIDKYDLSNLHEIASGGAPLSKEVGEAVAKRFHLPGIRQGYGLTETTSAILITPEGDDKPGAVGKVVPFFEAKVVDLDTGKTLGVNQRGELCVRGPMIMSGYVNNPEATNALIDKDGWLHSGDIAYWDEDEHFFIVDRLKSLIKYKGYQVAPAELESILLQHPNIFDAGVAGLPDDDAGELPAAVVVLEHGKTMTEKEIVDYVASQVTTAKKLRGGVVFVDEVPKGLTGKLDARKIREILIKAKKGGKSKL
Experiment [10] in a line: Luminescence Cell-Based Dose Confirmation HTS to Identify Inhibitors of Platelet Dense Granule Release. [Related pubchem assays: 1663 (Primary HTS), 1678 (Summary of Project)]. Format: functional.
Experiment [11] deals with Neuropeptide Y receptor type 1 (Homo sapiens, UniProt P25929). The experiment is classed as functional.
In experiment [12] the target is Neuropeptide Y receptor type 2 (Homo sapiens, UniProt P49146). Format: functional, cell-based.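 Also: HEK293 cells expressing the receptor and a CNG channel; stimulus was NPY near EC95 followed by isoproterenol to raise cAMP; antagonist potency measured as restoring cAMP signal that NPY suppresses.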
Neuropeptide Y receptor type 2, sequence (P49146 whole entry): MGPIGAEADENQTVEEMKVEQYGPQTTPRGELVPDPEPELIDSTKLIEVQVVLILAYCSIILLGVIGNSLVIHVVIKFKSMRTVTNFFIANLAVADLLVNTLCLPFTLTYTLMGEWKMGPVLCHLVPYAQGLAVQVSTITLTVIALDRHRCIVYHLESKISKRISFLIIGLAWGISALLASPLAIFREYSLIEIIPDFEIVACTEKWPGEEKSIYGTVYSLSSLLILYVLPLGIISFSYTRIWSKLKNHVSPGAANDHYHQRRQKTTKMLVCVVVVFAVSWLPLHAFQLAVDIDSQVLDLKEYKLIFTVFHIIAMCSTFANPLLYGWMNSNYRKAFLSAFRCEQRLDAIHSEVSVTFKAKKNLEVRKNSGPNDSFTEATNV
The target of experiment [13] is T4, Bcl-2-related protein A1 (Mus musculus, UniProt Q07440).
T4 sequence (Q07440 whole entry): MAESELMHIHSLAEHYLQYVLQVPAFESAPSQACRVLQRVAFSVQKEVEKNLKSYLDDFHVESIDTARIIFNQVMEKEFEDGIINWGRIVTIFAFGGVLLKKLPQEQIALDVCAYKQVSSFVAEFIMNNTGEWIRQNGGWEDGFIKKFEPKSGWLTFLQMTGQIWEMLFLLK
In words: Bfl-1 binding inhibitors, SAR follow-up, biochemical, fluorescence polarization (AID 1070).

Experiment [14] deals with T4, Bcl-2-related protein A1. The experiment can be described thus: Bfl-1 inhibitors blocking BH3 peptide binding, confirmation, biochemical, TR-FRET, mouse Bfl-1 (AID 621).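 Also: TR-FRET binding of GST-Bfl-1 to FITC-labelled Bid peptide via terbium antibody.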
Experiment [15] deals with Glyceraldehyde-3-phosphate dehydrogenase (Homo sapiens, UniProt P04406).
Glyceraldehyde-3-phosphate dehydrogenase, sequence (P04406 whole entry): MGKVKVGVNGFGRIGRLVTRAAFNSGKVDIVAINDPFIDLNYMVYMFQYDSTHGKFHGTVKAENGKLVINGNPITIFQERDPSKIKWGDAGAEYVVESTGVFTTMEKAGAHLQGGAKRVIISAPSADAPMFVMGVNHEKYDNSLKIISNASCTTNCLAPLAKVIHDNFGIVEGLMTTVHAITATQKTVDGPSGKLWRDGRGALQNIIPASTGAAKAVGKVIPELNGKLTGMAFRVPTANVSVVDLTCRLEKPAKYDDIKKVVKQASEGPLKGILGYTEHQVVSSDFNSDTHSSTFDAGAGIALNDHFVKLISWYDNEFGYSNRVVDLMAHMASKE

Estrogen receptor beta, sequence (Q92731 whole entry): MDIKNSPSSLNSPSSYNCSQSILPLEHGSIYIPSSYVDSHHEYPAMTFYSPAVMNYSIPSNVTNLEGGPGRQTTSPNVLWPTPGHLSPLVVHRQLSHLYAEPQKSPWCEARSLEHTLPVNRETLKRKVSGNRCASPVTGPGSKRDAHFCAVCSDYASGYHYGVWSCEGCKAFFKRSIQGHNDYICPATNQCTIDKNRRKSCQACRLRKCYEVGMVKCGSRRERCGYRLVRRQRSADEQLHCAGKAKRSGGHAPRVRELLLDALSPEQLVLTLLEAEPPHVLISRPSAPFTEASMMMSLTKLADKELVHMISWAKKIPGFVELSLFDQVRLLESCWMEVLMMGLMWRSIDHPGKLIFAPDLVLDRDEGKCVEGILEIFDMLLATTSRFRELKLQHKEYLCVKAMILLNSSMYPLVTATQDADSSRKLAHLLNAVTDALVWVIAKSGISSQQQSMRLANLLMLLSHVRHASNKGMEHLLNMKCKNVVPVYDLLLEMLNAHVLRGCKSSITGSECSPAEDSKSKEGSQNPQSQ

Take `CCOc1ccccc1N1CSC2=C(C#N)C(c3c(OC)ccc4ccccc34)CC(=O)N2C1` (stereo unspecified): the EC50 on Estrogen receptor is 16.1 µM (active). Besides, the IC50 at Large T antigen was 78.8 µM (active).

`CC1CCC2C(=O)N3C(CCC(C)[C@@H]3c3ccc(Br)cc3)C(=O)N2C1c1ccc(Br)cc1` (stereo partly specified): the AC50 is 5.01 µM (inconclusive) on Cytochrome P450 3A4 and 3.98 µM (inconclusive) at Cytochrome P450 2C19.

As for `Cc1ccnc(N2C(=O)c3cccc4c([N+](=O)[O-])ccc(c34)C2=O)c1`, the IC50 was 23.4 µM (inactive) in experiment [1], > 66 µM (inactive) in experiment [3], 1.62 µM (active) in experiment [4] and 3.43 µM (active) in experiment [6]. For the same compound, the EC50 in experiment [2] was 4.58 µM (active); in [5], > 30 µM (not active).

Consider `O=C(CCCn1c(=S)[nH]c2ccccc2c1=O)N1CCN(c2ccc(C(F)(F)F)cc2)CC1`, for which the IC50 on Estrogen receptor beta is on record as 33 µM (not active).

`COc1cccc(NC(=O)COC(=O)/C=C/c2c(C)nn(-c3ccccc3)c2C)c1`: the figures for the IC50 (on Insulin-degrading enzyme; in experiment [7]) were 8.29 µM (active) and > 55.7 µM (not active), respectively.

`Oc1ccccc1-c1nc(N2CCCC2)c2ccccc2n1`: the IC50 in [8] is 14.6 µM (active).

With `O=C(Nc1ccccc1)OCc1cc(-c2ccccc2Cl)on1`, the EC50 in experiment [9] and in [10] was > 112 µM (not active) throughout. For the same compound, the figures for the IC50 in experiment [11] and in experiment [12] were 9 µM (active) and 14.7 µM (not active), respectively.

Regarding `C[C@@H]1CN(C2=C(Cl)C(=O)N(c3cccc([N+](=O)[O-])c3)C2=O)CCN1`, the results for the IC50 (at Bcl-2-related protein A1 [13]; on Bcl-2-related protein A1 [14]; in experiment [15]) were 12.7 µM (active), 9.03 µM (active) and > 100 µM (not active), respectively.
